For one assay, the system named is Epithelial cells. The assay can be described thus: Interaction of GFP-labelled complexes with cell membrane of epithelial cells (Example II-52, Table II-30). The settings on record: GFP-labelled complex, epithelial cells pretreated 4 hours, n=3. The format is cell-based. The protocol: The fatty acids were combined with water-soluble small molecules to form a complex, which were labeled with GFP fluorescence to detect cell membrane fluorescence. […] After the cells were stably adhered, the water-soluble fatty acid complexes in the following table were added to the cell culture medium. […] The medium with the drug was pipetted and replaced with normal DMEM medium. […] The green fluorescence intensity was analyzed by imageJ (see Table II-30, n=3).

The next assay deals with 293T cells. The assay can be described thus: Cellular phagocytosis of DiD-loaded lipid vesicles (nano-drugs) by 293T cells (Example II-51, Table II-29). The format is cell-based. The settings on record: 293T cells pretreated 4 h, DiD lipid vesicles 2 h, n=3, untreated control 226.46 ± 1.26.

As for `Nc1ncnc2c1ncn2[C@@H]1O[C@H](COP(=O)(O)O)[C@@H](O)[C@H]1O.O=C(O)/C=C/C(=O)O` [Adenosine monophosphate-fumaric acid], the Mean fluorescence intensity stood at 125.1 ± 7.6 with Epithelial cells (0 Hours after medium replaced); 120.5 ± 7.4 in the assay on Epithelial cells (2 Hours after medium replaced); 113.3 ± 4.6 in the assay on Epithelial cells (4 Hours after medium replaced); 50.0 ± 2.4 with Epithelial cells (8 Hours after medium replaced); 35.8 ± 4.6 with Epithelial cells (12 Hours after medium replaced); 31.3 ± 4.4 with Epithelial cells (24 Hours after medium replaced).

Regarding `CCCCCCC=CCCCCCCCC(=O)OCC1OC(O)C(O)C(O)C1O` (stereo not drawn) [Glucose-c-9-hexadecenoic acid], the Mean fluorescence intensity came to 126.3 ± 2.5 in the assay with Epithelial cells (0 Hours after medium replaced); 113.5 ± 8.2 with Epithelial cells (2 Hours after medium replaced); 105.5 ± 6.8 in the assay on Epithelial cells (4 Hours after medium replaced); 87.5 ± 6.8 with Epithelial cells (8 Hours after medium replaced); 64.3 ± 5.1 in the assay on Epithelial cells (12 Hours after medium replaced); 43.5 ± 5.0 with Epithelial cells (24 Hours after medium replaced).

In the case of `CCCCCCCCC/C=C/C(=O)OCC1OC(O)C(O)C(O)C1O` (stereo not drawn) [Glucose-t-2-dodecenoic acid], the Mean fluorescence intensity in the assay on Epithelial cells (0 Hours after medium replaced) worked out at 129.3 ± 0.6; in the assay on Epithelial cells (2 Hours after medium replaced), 122.0 ± 6.6; in the assay with Epithelial cells (4 Hours after medium replaced), 109.6 ± 5.6; with Epithelial cells (8 Hours after medium replaced) it was 63.4 ± 6.0; in the assay on Epithelial cells (12 Hours after medium replaced) it was 45.7 ± 4.6; with Epithelial cells (24 Hours after medium replaced), 38.5 ± 8.2.

Turning to `CCCCC/C=C/C(=O)OCC1OC(O)C(O)C(O)C1O` (stereo not drawn) [Glucose-t-2-octenoic acid], the Mean fluorescence intensity in the assay on Epithelial cells (0 Hours after medium replaced) stood at 99.4 ± 3.6; with Epithelial cells (2 Hours after medium replaced) it was 92.5 ± 4.0; in the assay with Epithelial cells (4 Hours after medium replaced) it was 61.4 ± 4.2; in the assay with Epithelial cells (8 Hours after medium replaced), 42.3 ± 3.3; in the assay on Epithelial cells (12 Hours after medium replaced), 36.4 ± 4.3; in the assay with Epithelial cells (24 Hours after medium replaced) it was 32.4 ± 6.6.

For `C=CCCCCCCCCC(=O)NCCCCC(N)C(=O)O` (stereo not drawn) [Lys-10-undecenoic acid], the Mean fluorescence intensity is given as 135.6 ± 2.4 in the assay on Epithelial cells (0 Hours after medium replaced); 130.8 ± 6.7 in the assay on Epithelial cells (2 Hours after medium replaced); 118.2 ± 9.0 in the assay on Epithelial cells (4 Hours after medium replaced); 89.5 ± 4.4 in the assay with Epithelial cells (8 Hours after medium replaced); 58.6 ± 5.7 with Epithelial cells (12 Hours after medium replaced); 49.6 ± 0.5 in the assay on Epithelial cells (24 Hours after medium replaced).

`CCC=CCC=CCC=CCC=CCC=CCCCC(=O)NCCCCC(N)C(=O)O` (stereo not drawn) [Lys-EPA]: the Mean fluorescence intensity with Epithelial cells (0 Hours after medium replaced) worked out at 123.3 ± 8.8; in the assay on Epithelial cells (2 Hours after medium replaced) it was 119.2 ± 3.7; in the assay with Epithelial cells (4 Hours after medium replaced), 109.4 ± 1.7; with Epithelial cells (8 Hours after medium replaced), 66.4 ± 4.7; in the assay with Epithelial cells (12 Hours after medium replaced) it was 39.4 ± 5.8; in the assay with Epithelial cells (24 Hours after medium replaced) it was 32.5 ± 4.5.

For the molecule `CC=CC(=O)NCCCCC(N)C(=O)O` (stereo not drawn) [Lys-crotonic acid], the Mean fluorescence intensity in the assay on Epithelial cells (0 Hours after medium replaced) worked out at 119.3 ± 3.4; in the assay with Epithelial cells (2 Hours after medium replaced), 120.0 ± 6.6; in the assay with Epithelial cells (4 Hours after medium replaced) it was 98.3 ± 5.5; in the assay on Epithelial cells (8 Hours after medium replaced), 55.9 ± 6.7; with Epithelial cells (12 Hours after medium replaced), 46.9 ± 3.6; in the assay on Epithelial cells (24 Hours after medium replaced) it was 40.4 ± 5.3.

With `CCCCCCCC(=O)NCCCCC(N)C(=O)O` (stereo not drawn) [Lys-n-octanoic acid], the Mean fluorescence intensity is on record as 103.4 ± 3.1 in the assay on Epithelial cells (0 Hours after medium replaced); 99.3 ± 7.9 with Epithelial cells (2 Hours after medium replaced); 92.4 ± 7.7 with Epithelial cells (4 Hours after medium replaced); 45.4 ± 4.7 in the assay with Epithelial cells (8 Hours after medium replaced); 30.4 ± 7.5 in the assay on Epithelial cells (12 Hours after medium replaced); 24.2 ± 8.5 in the assay on Epithelial cells (24 Hours after medium replaced).

On to `NC(CCCCNC(=O)CCCCCCCCCCCC(=O)O)C(=O)O` (stereo not drawn) [Lys-tridecanedioic acid], for which the Mean fluorescence intensity in the assay on Epithelial cells (0 Hours after medium replaced) turned out to be 134.4 ± 5.7; in the assay with Epithelial cells (2 Hours after medium replaced), 125.0 ± 6.9; in the assay with Epithelial cells (4 Hours after medium replaced) it was 113.9 ± 4.2; in the assay with Epithelial cells (8 Hours after medium replaced), 64.3 ± 1.6; with Epithelial cells (12 Hours after medium replaced) it was 48.4 ± 6.8; with Epithelial cells (24 Hours after medium replaced), 42.0 ± 2.6.

Consider `NC(COC(=O)CCCCCCCCCCCCCCCCCCCCC(=O)O)C(=O)O` (stereo not drawn) [Ser-docosanedioic acid], for which the Mean fluorescence intensity in the assay on Epithelial cells (0 Hours after medium replaced) was determined as 114.5 ± 3.3; in the assay on Epithelial cells (2 Hours after medium replaced), 101.4 ± 6.9; in the assay with Epithelial cells (4 Hours after medium replaced) it was 95.4 ± 5.5; in the assay with Epithelial cells (8 Hours after medium replaced), 74.4 ± 2.4; in the assay on Epithelial cells (12 Hours after medium replaced), 34.5 ± 5.5; in the assay with Epithelial cells (24 Hours after medium replaced) it was 20.4 ± 4.4.

`NC(COC(=O)CCCCCCCCCCC(=O)O)C(=O)O` (stereo not drawn) [Ser-dodecanedioic acid]: the Mean fluorescence intensity in the assay on Epithelial cells (0 Hours after medium replaced) is 127.3 ± 3.5; in the assay with Epithelial cells (2 Hours after medium replaced), 126.3 ± 5.2; with Epithelial cells (4 Hours after medium replaced), 118.3 ± 7.3; with Epithelial cells (8 Hours after medium replaced) it was 69.3 ± 8.4; in the assay with Epithelial cells (12 Hours after medium replaced), 59.3 ± 5.5; in the assay on Epithelial cells (24 Hours after medium replaced), 45.3 ± 1.6.

Regarding `NC(COC(=O)CCCCCCCCCCCCCCC(=O)O)C(=O)O` (stereo not drawn) [Ser-hexadecanedioic acid], the Mean fluorescence intensity in the assay on Epithelial cells (0 Hours after medium replaced) is 119.6 ± 9.4; with Epithelial cells (2 Hours after medium replaced) it was 116.2 ± 5.1; with Epithelial cells (4 Hours after medium replaced) it was 93.4 ± 5.3; in the assay on Epithelial cells (8 Hours after medium replaced), 63.9 ± 4.1; with Epithelial cells (12 Hours after medium replaced) it was 46.0 ± 3.6; in the assay on Epithelial cells (24 Hours after medium replaced) it was 37.6 ± 6.7.

On to `CCCCCCCCCC(=O)OCC(N)C(=O)O` (stereo not drawn) [Ser-n-decanoic acid], for which the Mean fluorescence intensity in the assay with Epithelial cells (0 Hours after medium replaced) came to 115.4 ± 4.4; with Epithelial cells (2 Hours after medium replaced), 113.3 ± 6.4; in the assay with Epithelial cells (4 Hours after medium replaced), 108.3 ± 4.4; in the assay on Epithelial cells (8 Hours after medium replaced) it was 75.5 ± 2.7; in the assay on Epithelial cells (12 Hours after medium replaced), 56.4 ± 2.4; with Epithelial cells (24 Hours after medium replaced), 39.5 ± 5.7.

With `NC(COC(=O)CCCCCCCCCCCCCCCCC(=O)O)C(=O)O` (stereo not drawn) [Ser-octadecanedioic acid], the Mean fluorescence intensity is 136.2 ± 8.5 with Epithelial cells (0 Hours after medium replaced); 127.3 ± 1.6 in the assay with Epithelial cells (2 Hours after medium replaced); 102.3 ± 4.4 in the assay on Epithelial cells (4 Hours after medium replaced); 76.2 ± 4.6 with Epithelial cells (8 Hours after medium replaced); 53.9 ± 7.2 with Epithelial cells (12 Hours after medium replaced); 42.4 ± 5.5 in the assay with Epithelial cells (24 Hours after medium replaced).

As for `CCC/C=C/C(=O)OCC(N)C(=O)O` (stereo not drawn) [Ser-t-2-hexenoic acid], the Mean fluorescence intensity in the assay on Epithelial cells (0 Hours after medium replaced) is 104.3 ± 5.2; with Epithelial cells (2 Hours after medium replaced) it was 101.3 ± 8.6; with Epithelial cells (4 Hours after medium replaced), 95.4 ± 4.5; in the assay on Epithelial cells (8 Hours after medium replaced), 39.9 ± 8.4; with Epithelial cells (12 Hours after medium replaced), 32.5 ± 3.6; with Epithelial cells (24 Hours after medium replaced), 29.8 ± 5.2.

`CCCCCCCCC=CCCCCCCCCCCCC(=O)OC(C)C(N)C(=O)O` (stereo not drawn) [Thr-erucic acid]: the Mean fluorescence intensity in the assay on Epithelial cells (0 Hours after medium replaced) is 137.4 ± 5.8; in the assay on Epithelial cells (2 Hours after medium replaced), 121.3 ± 5.5; with Epithelial cells (4 Hours after medium replaced), 105.2 ± 7.3; with Epithelial cells (8 Hours after medium replaced), 79.5 ± 4.8; in the assay on Epithelial cells (12 Hours after medium replaced), 48.3 ± 1.2; with Epithelial cells (24 Hours after medium replaced), 42.4 ± 4.6.

As for `CCCCCC=CCC=CCCCCCCCC(=O)OC(C)C(N)C(=O)O` (stereo not drawn) [Thr-linoleic acid], the Mean fluorescence intensity turned out to be 127.9 ± 6.6 in the assay on Epithelial cells (0 Hours after medium replaced); 122.3 ± 4.7 in the assay on Epithelial cells (2 Hours after medium replaced); 102.0 ± 1.5 in the assay with Epithelial cells (4 Hours after medium replaced); 65.2 ± 5.6 in the assay on Epithelial cells (8 Hours after medium replaced); 45.0 ± 2.5 in the assay on Epithelial cells (12 Hours after medium replaced); 41.5 ± 7.2 in the assay with Epithelial cells (24 Hours after medium replaced).

As for `CCCC(=O)OC(C)C(N)C(=O)O` (stereo not drawn) [Thr-n-butyric acid], the Mean fluorescence intensity in the assay on Epithelial cells (0 Hours after medium replaced) was 126.4 ± 4.6; in the assay with Epithelial cells (2 Hours after medium replaced), 121.4 ± 4.6; in the assay with Epithelial cells (4 Hours after medium replaced), 115.0 ± 0.4; in the assay with Epithelial cells (8 Hours after medium replaced) it was 60.41 ± 3.4; in the assay on Epithelial cells (12 Hours after medium replaced) it was 34.91 ± 5.6; in the assay on Epithelial cells (24 Hours after medium replaced), 30.67 ± 4.5.

Turning to `CC(OC(=O)CCCCCCC(=O)O)C(N)C(=O)O` (stereo not drawn) [Thr-octanedioic acid], the Mean fluorescence intensity in the assay with Epithelial cells (0 Hours after medium replaced) is recorded as 125.3 ± 4.2; with Epithelial cells (2 Hours after medium replaced) it was 122.4 ± 7.5; with Epithelial cells (4 Hours after medium replaced), 115.4 ± 6.8; in the assay on Epithelial cells (8 Hours after medium replaced) it was 55.4 ± 7.8; in the assay on Epithelial cells (12 Hours after medium replaced) it was 45.0 ± 6.3; with Epithelial cells (24 Hours after medium replaced), 35.3 ± 5.9.

As to `O=C(O)CCCCCCCCCC(=O)OCC(O)C1OC(=O)C(O)=C1O` (stereo not drawn) [VC-undecanedioic acid], the Fluorescence intensity with 293T cells (2 nM) was determined as 121.02; in the assay on 293T cells (5 nM), 92.26; in the assay with 293T cells (10 nM), 78.76 ± 7.89; in the assay on 293T cells (50 nM), 87.57 ± 5.57; in the assay with 293T cells (100 nM), 96.31 ± 6.21; in the assay on 293T cells (1 uM), 199.22 ± 19.26. In addition, the Fluorescence intensity is reported as 217.49 ± 14.22 in the assay on 293T cells (10 uM), 106.96 ± 5.64 with 293T cells (50 uM) and 110.44 ± 9.87 in the assay on 293T cells (100 uM).

These data come from US20260166162A1, “CARBON CHAIN SUBSTANCE FOR REGULATING TRANSMEMBRANE TRANSPORT AND FLUIDITY OF CELL MEMBRANES, AND PREPARATION AND USE THEREOF” (priority 2022, published 2026).
